This is an account of results in paper PMC12169669, “Regio- and Stereoselective Synthesis of Nitro-fatty Acids as NRF2 Pathway Activators Working under Ambient or Hypoxic Conditions” (Journal of Medicinal Chemistry, 2025).

Type in all cases: cell-based, mouse
One test has as its system Gclm. Kind of test: Relative gene expression of Gclm in BMCs (qRT-PCR). As to conditions: 2 μM, 4 h; for Gclm relative expression: 4% and 1% oxygen. An excerpt: (§1) Primary bone marrow cells (BMCs) were isolated from 8–12-week-old male C57BL/6 mice (25–30 g, AnLab, Czech Republic). Mice were housed under standard conditions. BMCs were isolated as follows: The day before isolation, phosphate-buffered saline (PBS), ACK Lysis Buffer (A10492-01, Thermo Fisher Scientific), and Iscove’s Modified Dulbecco’s Medium (IMDM) (12440-053, Thermo Fisher Scientific) were placed in a hypoxic chamber (InvivO2 400, Baker Ruskinn, UK) with adjustable oxygen control to equilibrate for the target oxygen concentrations. On the day of the experiment, animals were euthanized using ketamine/xylazine, and bilateral femurs were extracted. BMCs were flushed with hypoxic (1% O2 unless stated otherwise) PBS supplemented with 2% fetal bovine serum (FBS; low endotoxin, FB-1101/500, Biosera, France). After hemolysis at room temperature using hypoxic ACK Lysis Buffer, nucleated BMCs were washed with hypoxic PBS + 2% FBS and counted using a TC20 automated cell counter (Bio-Rad). Cells were kept under hypoxic conditions prior to treatment. The medium for BMC culture, consisting of IMDM with 2% FBS and 1% penicillin/streptomycin (LM-A4118/100, Biosera, France), was supplemented with 10 ng/mL mouse IL-3, 10 ng/mL mouse IL-6, and 50 ng/mL mouse stem cell factor - SCF (213-13, 216-16, and 250-03, respectively; all from PeproTech). Cells were cultured at 37 °C in a humidified atmosphere containing 5% CO2 and the specified oxygen concentrations (21%, 4%, or 1%).
(§2) For the relative gene expression of nuclear factor erythroid 2-related factor 2 (NRF2, encoded by Nfe2l2), heme oxygenase-1 (Hmox1), and Glutamate-Cysteine Ligase Modifier Subunit (Gclm) (Mm00477784_m1, Mm00516005_m1, Mm00514996_m1, all from Thermo Fisher Scientific), mouse BMC (3 × 10^6 cells) were cultivated on a 6-well plate in 1.5 mL of complete media (see Isolation and culture of primary cells), and then incubated with 2 μM NO2FAs or control (medium only) for 4 h at the specified oxygen levels (21%, 4%, or 1%). Then, the adherent and nonadherent cells were washed with PBS and lysed using a NucleoSpin RNA Plus kit (740984, Machery-Nagel; Germany). The concentration and purity of isolated RNA was assessed using an Infinite M200 Pro spectrophotometer (Tecan, Austria). Total RNA (0.2 μg) was reversely transcribed into first strand cDNA using a RevertAid First Strand cDNA Synthesis kit according to the manufacturer’s protocol (K1622, Thermo Fisher Scientific). qRT-PCR reactions were performed in a LightCycler480 instrument (Roche; Switzerland) using TaqMan FastAdvanced Master Mix for qPCR (4444557, Thermo Fisher Scientific) and the following program was used: uracil-N-glycosylase activation step at 50 °C for 2 min, an initial denaturation step at 95 °C for 2 min, followed by 45 cycles (95 °C for 3 s, 60 °C for 30 s), and a final cooling step at 40 °C for 1 min. Data were normalized to ribosomal protein L32 (Rpl32, Mm02528467_g1, Thermo Fisher Scientific) and presented as 2^–Δcq.
(§3) 3 Expression of NRF2 and its target genes in response to NO2FA derivatives. BMCs were cultured under 4% or 1% oxygen conditions and treated for 4 h with the tested NO 2 FAs (2 μM) or medium followed by quantification of (A) Nfe2l2, (B) Hmox1, and (C) Gclm with PCR. Results are presented as relative expression across different oxygen culture conditions. Dimethyl fumarate (DMF) was added as a control. Data are expressed as mean ± SD from 3 to 7 independent experiments (n = 3–7), analyzed with one-way ANOVA with Dunnett’s multiple comparisons test compared to the controls (*p < 0.05; **p < 0.01; ***p < 0.001).
(§4) Relative expression of (A) Hmox1 and (B) Gclm in different oxygen […]
(§5) Figure S 2. Relative expression of (A) Hmox1 and (B) Gclm in different oxygen conditions. BMCs were cultured under varying oxygen conditions (21, 4, and 1%) and treated for 4 hours with the tested 10 -NO₂OA (2 µM) or medium followed by quantification […]
(§6) with PCR. […]
In general terms: Quantitative PCR measures a nucleic acid by following its amplification.

The subject of another test is Hmox1. As to the kind of experiment: Relative gene expression of Hmox1 in BMCs (qRT-PCR). The following applies: 2 μM, 4 h; for Hmox1 relative expression: 4% and 1% oxygen.
From the text: as §1, §2, §3, §4, §5, §6

The test system of another test is HO-1. As to the kind of experiment: HO-1 protein level in BMCs (Western blot). As to conditions: 2 μM, 4 h; for HO-1 increase at 1% oxygen relative to atmospheric conditions: 1% vs 21% oxygen.
From the text: as §1
Briefly, 1.5 × 10^6 BMCs were placed in 0.2 mL of complete medium in 1.5 mL microtubes and incubated with 2 μM NO2FAs or the control (medium only) for 1 (NRF2), 4 (heme oxygenase-1, HO-1), or 7 (glutamate-cysteine ligase modifier subunit, GCLM) hours at the specified oxygen levels (21%, 4%, or 1%). Cells were then spun down and washed with PBS (from this step onward, cells were processed under atmospheric conditions). Next, cells were lysed in 60 μL RIPA buffer (89901, Thermo Fisher Scientific) containing protease and phosphatase inhibitors cocktail (78442, Thermo Fisher Scientific). Cell lysates were sonicated and centrifuged at 15,000g for 3 min at 4 °C, and 15 μL of lane marker (3900, Thermo Fisher Scientific) was added to the supernatants. Samples were boiled for 3 min at 95 °C. Equal volumes of lysates (15–45 μL/well) were loaded onto 7–15% SDS-polyacrylamide gels. Proteins were then transferred onto PVDF membranes (IPVH85R, EMD Millipore Corp.) and blocked with 5% nonfat dry milk in TBST. Membranes were incubated overnight at 4 °C with the following primary antibodies: anti-β-actin (1:1000; #3700, Cell Signaling Technology), antivinculin (1:10,000; #SAV9264, Sigma-Aldrich), anti-NRF2 (1:500; A308758, Lot 38410, Antibodies.com, UK), anti-HO-1 (1:1000; #43966, Cell Signaling Technology), antihistone H3 (1:2000; #4499, Cell Signaling Technology), or anti-GCLM (1:100; sc-55586, Santa Cruz Biotechnology). This was followed by incubation with corresponding HRP-linked secondary antibodies (antimouse IgG, #7076, 1:1000–5000; or antirabbit IgG, #7074, 1:1000–2000; both from Cell Signaling Technology) for 1 h at room temperature. Protein bands were visualized using an enhanced chemiluminescent substrate (SuperSignal 34577/34095, Thermo Fisher Scientific). The optical densities of detected proteins were measured using ImageJ v1.52 (NIH).
4 Expression of NRF2-target proteins HO-1 and GCLM. NO 2 FA derivatives upregulate the expression of NRF2-target proteins in mouse BMCs. BMCs were cultured under 21% or 1% oxygen conditions and treated with 2 μM of the tested NO 2 FAs for 4 h (A, B) or 7 h (C, D). HO-1 (A, B) and GCLM (C, D) expression in whole-cell lysates was subsequently analyzed. Results are presented as the fold change relative to control cells across different oxygen culture conditions. Data are expressed as mean ± SD from 3–5 independent experiments (n = 3–5). […]
(In general: A western blot detects proteins with antibodies after separation by electrophoresis.)

For the next test, the system named is Nfe2l2. Kind of test: Relative gene expression of Nfe2l2 in BMCs (qRT-PCR). As to conditions: 2 μM, 4 h. From the text: Primary bone marrow cells (BMCs) were isolated from 8–12-week-old male C57BL/6 mice (25–30 g, AnLab, Czech Republic). Mice were housed under standard conditions. BMCs were isolated as follows: The day before isolation, phosphate-buffered saline (PBS), ACK Lysis Buffer (A10492-01, Thermo Fisher Scientific), and Iscove’s Modified Dulbecco’s Medium (IMDM) (12440-053, Thermo Fisher Scientific) were placed in a hypoxic chamber (InvivO2 400, Baker Ruskinn, UK) with adjustable oxygen control to equilibrate for the target oxygen concentrations. On the day of the experiment, animals were euthanized using ketamine/xylazine, and bilateral femurs were extracted. […] After hemolysis at room temperature using hypoxic ACK Lysis Buffer, nucleated BMCs were washed with hypoxic PBS + 2% FBS and counted using a TC20 automated cell counter (Bio-Rad). […]
3 Expression of NRF2 and its target genes in response to NO2FA derivatives. BMCs were cultured under 4% or 1% oxygen conditions and treated for 4 h with the tested NO 2 FAs (2 μM) or medium followed by quantification of (A) Nfe2l2, (B) Hmox1, and (C) Gclm with PCR. […] Data are expressed as mean ± SD from 3 to 7 independent experiments (n = 3–7), analyzed with one-way ANOVA with Dunnett’s multiple comparisons test compared to the controls (*p < 0.05; **p < 0.01; ***p < 0.001).

For `CCCCCCCC/C=C(\CCCCCCCC(=O)O)[N+](=O)[O-]` [9-NO2OA, (9E)-9-Nitro-oleic Acid], the Gclm relative expression result in the test on Gclm is “significant upregulation”. Besides, the Hmox1 relative expression entry with Hmox1 is recorded as “significant upregulation”. The “HO-1 increase at 1% oxygen relative to atmospheric conditions” value with HO-1 is on record as “roughly 1.8 fold”. Besides, the “HO-1 protein level, fold change relative to control” value in the test with HO-1 (21% oxygen) is “significantly increased”. Also, the Nfe2l2 relative expression result in the test on Nfe2l2 (4% oxygen) was “significantly increased”.

For `CCCCCC/C=C/C=C(\CCCCCCCC(=O)O)[N+](=O)[O-]` [9-NO2cLA, (9E,11E)-9-Nitro Conjugated Linoleic Acid], the Gclm relative expression result in the test with Gclm is “upregulation that was dependent on oxygen levels”. For the same compound, the Hmox1 relative expression result in the test with Hmox1 was “upregulation that was dependent on oxygen levels”.

Turning to `CCCCC/C=C\C/C(=C\CCCCCCCC(=O)O)[N+](=O)[O-]` [10-NO2LA, (9E,12Z)-10-Nitro Linoleic Acid], the Gclm relative expression entry in the test on Gclm is recorded as “upregulation that was dependent on oxygen levels or specific target genes”. Also, in the test on Hmox1, the Hmox1 relative expression result is “upregulation that was dependent on oxygen levels or specific target genes”. In addition, the “HO-1 protein level, fold change relative to control” value in the test with HO-1 (1% oxygen) is given as “only increased HO-1 under hypoxic conditions”.

For the compound `CCCCCCCC/C(=C\CCCCCCCC(=O)O)[N+](=O)[O-]` [10-NO2OA, (9E)-10-Nitro-oleic Acid], in the test with Gclm (1% vs 21% oxygen), the “Gclm expression at 1% oxygen compared to 21%” value is given as “not observed”. The Gclm relative expression entry in the test on Gclm is given as “significant upregulation”. Further, the “Hmox1 expression at 1% oxygen compared to 21%” value in the test on Hmox1 (1% vs 21% oxygen) is “significantly upregulated”. The Hmox1 relative expression result in the test on Hmox1 is on record as “significant upregulation”. The “HO-1 increase at 1% oxygen relative to atmospheric conditions” value with HO-1 is given as around 2.2 fold. Moreover, the “HO-1 protein level, fold change relative to control” value in the test on HO-1 (21% oxygen) was “significantly increased”.

Take `CCCCCCCCC(CCCCCCCCC(=O)O)[N+](=O)[O-]` (stereo not drawn) [10-NO2SA, 10-Nitro Stearic acid]: the Gclm relative expression entry in the test on Gclm was “no effects”. For the same compound, in the test with Hmox1, the Hmox1 relative expression entry is on record as “no effects”. Besides, the “HO-1 protein level, fold change relative to control” value in the test with HO-1 (1% oxygen) and in the test with HO-1 (21% oxygen) was “no significant effects” throughout. Moreover, in the test with Nfe2l2 (4% and 1% oxygen), the Nfe2l2 relative expression entry is on record as “no effects”.
